Tests used:
Format in all cases: in vivo
Parameters in all cases: key: 0 is no effect; 10 is complete control
[1] = tested on: bedstraw (Galium aparine); test: Test B pre-/postemergence; conditions: for Bedstraw plant response rating: Preemergence
In short: (§1)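 Compounds in a surfactant-containing, non-phytotoxic solvent blend are applied to freshly planted seed (preemergence) and, concurrently, to seedlings of 2 to 18 cm at 1–4 leaves (postemergence). Plants stay in the greenhouse twelve to sixteen days and are then scored visually from 0 (no effect) to 10 (complete control).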

[2] = tested on: blackgrass (Alopecurus myosuroides); test: Test B pre-/postemergence; conditions: for Blackgrass plant response rating: Preemergence
In short: as §1

[3] = tested on: broadleaf signalgrass (Brachiaria decumbens); test: Test B pre-/postemergence; conditions: for B. signalgrass plant response rating: Preemergence
In short: as §1

[4] = tested on: cocklebur (Xanthium strumarium); test: Test B pre-/postemergence; conditions: for Cocklebur plant response rating: Preemergence
In short: as §1

corn (Zea mays) = test: Test B pre-/postemergence; conditions: for Corn plant response rating: Preemergence
In short: as §1

[5] = tested on: crabgrass (Digitaria sanguinalis); test: Test B pre-/postemergence; conditions: for Crabgrass plant response rating: Preemergence
In short: as §1

[6] = tested on: giant foxtail (Setaria faberii); test: Test B pre-/postemergence
In short: as §1

[7] = tested on: momingglory (Ipomoea hederacea); test: Test B pre-/postemergence
In short: as §1

[8] = tested on: pigweed (Amaranthus retroflexus); test: Test B pre-/postemergence
In short: as §1

[9] = tested on: purple nutsedge (Cyperus rotundus); test: Test B pre-/postemergence
In short: as §1

rape (Brassica napus) = test: Test B pre-/postemergence
In short: as §1

soybean (Glycine max) = test: Test B pre-/postemergence
In short: as §1

[10] = tested on: sugar beet (Beta vulgaris); test: Test B pre-/postemergence
In short: as §1

[11] = tested on: velvetleaf (Abutilon theophrasti); test: Test B pre-/postemergence
In short: as §1

[12] = tested on: wheat (Triticum aestivum); test: Test B pre-/postemergence
In short: as §1

wild oat (Avena fatua) = test: Test B pre-/postemergence
In short: as §1

[13] = tested on: bamyardgrass (Echinochloa crus-galli); test: Test B flood test
In short: (§2)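 Read-out is a visual response score from 0 (no effect) to 10 (complete control), assigned by comparison with untreated controls. Treatment was applied at the 2-leaf stage, and plants stayed in the greenhouse for twelve to sixteen days before scoring.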

[14] = tested on: duck salad (Heteranthera limosa); test: Test B flood test
In short: as §2

rice (Oryza sativa) = test: Test B flood test
In short: as §2

[15] = tested on: smallflower flatsedge (Cyperus difformis); test: Test B flood test
In short: as §2

[16] = Rate 250 g/ha, Postemergence (so in the source)
[17] = Rate 62 g/ha, Postemergence (flood test)
[18] = Rate 125 g/ha, Postemergence, flood test
[19] = Rate 250 g/ha, Postemergence (flood test species)
[20] = Rate 125 g/ha, Postemergence section (flood test species)

COc1cnc(-n2ccc(C(F)(F)F)n2)nc1Cc1cccc(C(F)(F)F)c1 [Compound 45]
0: Plant response rating, Bedstraw ([1]; Rate 62 g/ha, Postemergence) | Bedstraw plant response rating ([1]; Rate 62 g/ha) | Plant response rating, Bedstraw ([1]; Rate 125 g/ha, Postemergence) | Bedstraw plant response rating ([1]; Rate 125 g/ha) | Plant response rating, Bedstraw ([1]; Rate 250 g/ha, Postemergence) | Plant response rating, Bedstraw [1, 16] | Plant response rating, Blackgrass ([2]; Rate 62 g/ha, Postemergence) | Blackgrass plant response rating ([2]; Rate 62 g/ha) | Plant response rating, Blackgrass ([2]; Rate 125 g/ha, Postemergence) | Blackgrass plant response rating ([2]; Rate 125 g/ha) | Plant response rating, Blackgrass ([2]; Rate 250 g/ha, Postemergence) | Plant response rating, Blackgrass [2, 16] | Plant response rating, B. signalgrass ([3]; Rate 62 g/ha, Postemergence) | B. signalgrass plant response rating ([3]; Rate 62 g/ha) | Plant response rating, B. signalgrass ([3]; Rate 125 g/ha, Postemergence) | B. signalgrass plant response rating ([3]; Rate 125 g/ha) | Plant response rating, B. signalgrass ([3]; Rate 250 g/ha, Postemergence) | Plant response rating, B. signalgrass ([3]; Rate 250 g/ha, Postemergence as printed in head r139 (second section for compounds 26-50)) | Plant response rating, Cocklebur ([4]; Rate 62 g/ha, Postemergence) | Cocklebur plant response rating ([4]; Rate 62 g/ha) | Plant response rating, Cocklebur ([4]; Rate 125 g/ha, Postemergence) | Cocklebur plant response rating ([4]; Rate 125 g/ha) | Plant response rating, Cocklebur ([4]; Rate 250 g/ha, Postemergence) | Plant response rating, Cocklebur [4, 16] | Plant response rating, Corn (corn (Zea mays); Rate 62 g/ha, Postemergence) | Corn plant response rating (corn (Zea mays); Rate 62 g/ha) | Plant response rating, Corn (corn (Zea mays); Rate 125 g/ha, Postemergence) | Corn plant response rating (corn (Zea mays); Rate 125 g/ha) | Plant response rating, Corn (corn (Zea mays); Rate 250 g/ha, Postemergence) | Plant response rating, Corn (corn (Zea mays); [16]) | Plant response rating, Crabgrass ([5]; Rate 62 g/ha, Postemergence) | Crabgrass plant response rating ([5]; Rate 62 g/ha) | Plant response rating, Crabgrass ([5]; Rate 125 g/ha, Postemergence) | Crabgrass plant response rating ([5]; Rate 125 g/ha) | Plant response rating, Crabgrass ([5]; Rate 250 g/ha, Postemergence) | Plant response rating, Crabgrass [5, 16] | Plant response rating, Giant foxtail ([6]; Rate 62 g/ha, Postemergence) | Giant foxtail plant response rating ([6]; Rate 62 g/ha, Preemergence) | Giant foxtail plant response rating ([6]; Rate 125 g/ha, Postemergence) | Giant foxtail plant response rating ([6]; Rate 125 g/ha, Preemergence) | Plant response rating, Giant foxtail ([6]; Rate 250 g/ha, Postemergence) | Plant response rating, Giant foxtail [6, 16] | Plant response rating, Morningglory ([7]; Rate 62 g/ha, Postemergence) | Morningglory plant response rating ([7]; Rate 62 g/ha, Preemergence) | Morningglory plant response rating ([7]; Rate 125 g/ha, Postemergence) | Morningglory plant response rating ([7]; Rate 125 g/ha, Preemergence) | Plant response rating, Morningglory ([7]; Rate 250 g/ha, Postemergence) | Plant response rating, Morningglory [7, 16] | Plant response rating, Redroot pigweed ([8]; Rate 62 g/ha, Postemergence) | Redroot pigweed plant response rating ([8]; Rate 62 g/ha, Preemergence) | Redroot pigweed plant response rating ([8]; Rate 125 g/ha, Postemergence) | Redroot pigweed plant response rating ([8]; Rate 125 g/ha, Preemergence) | Plant response rating, Redroot pigweed ([8]; Rate 250 g/ha, Postemergence) | Plant response rating, Redroot pigweed [8, 16] | Plant response rating, Nutsedge ([9]; Rate 62 g/ha, Postemergence) | Nutsedge plant response rating ([9]; Rate 62 g/ha, Preemergence) | Nutsedge plant response rating ([9]; Rate 125 g/ha, Postemergence) | Nutsedge plant response rating ([9]; Rate 125 g/ha, Preemergence) | Plant response rating, Nutsedge [9, 16] | Plant response rating, Rape (rape (Brassica napus); Rate 62 g/ha, Postemergence) | Rape plant response rating (rape (Brassica napus); Rate 62 g/ha, Preemergence) | Rape plant response rating (rape (Brassica napus); Rate 125 g/ha, Postemergence) | Rape plant response rating (rape (Brassica napus); Rate 125 g/ha, Preemergence) | Plant response rating, Rape (rape (Brassica napus); Rate 250 g/ha, Postemergence) | Plant response rating, Rape (rape (Brassica napus); [16]) | Plant response rating, Soybean (soybean (Glycine max); Rate 62 g/ha, Postemergence) | Soybean plant response rating (soybean (Glycine max); Rate 62 g/ha, Preemergence) | Soybean plant response rating (soybean (Glycine max); Rate 125 g/ha, Postemergence) | Plant response rating, Soybean (soybean (Glycine max); Rate 125 g/ha, Preemergence) | Plant response rating, Soybean (soybean (Glycine max); Rate 250 g/ha, Postemergence) | Plant response rating, Soybean (soybean (Glycine max); [16]) | Plant response rating, Sugarbeets ([10]; Rate 62 g/ha, Postemergence) | Sugarbeets plant response rating ([10]; Rate 62 g/ha, Preemergence) | Sugarbeets plant response rating ([10]; Rate 125 g/ha, Postemergence) | Plant response rating, Sugarbeets ([10]; Rate 125 g/ha, Preemergence) | Plant response rating, Sugarbeets ([10]; Rate 250 g/ha, Postemergence) | Plant response rating, Sugarbeets [10, 16] | Plant response rating, Velvetleaf ([11]; Rate 62 g/ha, Postemergence) | Velvetleaf plant response rating ([11]; Rate 62 g/ha, Preemergence) | Velvetleaf plant response rating ([11]; Rate 125 g/ha, Postemergence) | Plant response rating, Velvetleaf ([11]; Rate 125 g/ha, Preemergence) | Plant response rating, Velvetleaf ([11]; Rate 250 g/ha, Postemergence) | Plant response rating, Velvetleaf [11, 16] | Wheat plant response rating ([12]; Rate 62 g/ha, Postemergence) | Wheat plant response rating ([12]; Rate 62 g/ha, Preemergence) | Wheat plant response rating ([12]; Rate 125 g/ha, Postemergence) | Plant response rating, Wheat ([12]; Rate 125 g/ha, Preemergence) | Plant response rating, Wheat ([12]; Rate 250 g/ha, Postemergence) | Plant response rating, Wheat [12, 16] | Wild oats plant response rating (wild oat (Avena fatua); Rate 62 g/ha, Postemergence) | Wild oats plant response rating (wild oat (Avena fatua); Rate 62 g/ha, Preemergence) | Wild oats plant response rating (wild oat (Avena fatua); Rate 125 g/ha, Postemergence) | Plant response rating, Wild oats (wild oat (Avena fatua); Rate 125 g/ha, Preemergence) | Plant response rating, Wild oats (wild oat (Avena fatua); Rate 250 g/ha, Postemergence) | Plant response rating, Wild oats (wild oat (Avena fatua); [16]) | Plant response rating, Barnyardgrass [13, 17] | Plant response rating, Barnyardgrass [13, 18] | Plant response rating, Barnyardgrass [13, 19] | Plant response rating, Ducksalad [14, 17] | Plant response rating, Ducksalad [14, 18] | Plant response rating, Ducksalad [14, 19] | Plant response rating, Rice (rice (Oryza sativa); [17]) | Rice plant response rating (rice (Oryza sativa); [20]) | Plant response rating, Rice (rice (Oryza sativa); [19]) | Plant response rating, S. Flatsedge [15, 17] | S. Flatsedge plant response rating [15, 20] | Plant response rating, S. Flatsedge [15, 19]

Reference: patent US6525001B1, “Substituted pyrimidine and pyridine herbicides” (Mid-American Commercialization Corporation, priority 1997, dated 2003)
